Experimental data from US20220133711A1, “CAMPTOTHECIN DERIVATIVES” (priority 2019, published 2022).
pIC50: −log10 of the molar value. Like-named read-outs stand apart in the source and are kept apart here.

Legend:
Format in all cases: cell-based
HSC-2 = assay: In vitro cytotoxicity assay (WST-8 cell viability, 5 days); settings: Homo sapiens
Method: (§1) Cytotoxic potencies were assessed in flat-bottomed 96 well plates (Costar) using a water-soluble tetrazonium salt (WST-8) based cell viability assay (Dojindo, Molecular Technologies, Inc.) as previously described (Kovtun Y V, et al. Antibody-maytansinoid conjugates designed to bypass multidrug resistance. Cancer Res 2010; 70(6):2528-37). Briefly, human tumor cells (1,000-5,000 cells/well, depending on the cell line), in the appropriate culture medium were incubated, with conjugates in the presence or absence of an excess of the corresponding unconjugated antibodies, or with the metabolites for 5 days, at 37° C., 6% CO2. Cell viability was determined from background-corrected WST-8 absorbance.

Namalwa = assay: as above; settings: Homo sapiens, read-out: In vitro cytotoxicity (IC50) Namalwa
Method: as §1

[1] = system: N-Luc (Namalwa cells stably transfected with the Luciferase gene); assay: as above; settings: Homo sapiens
Method: as §1

KB = assay: cells; settings: Homo sapiens, read-out: In vitro cytotoxicity (IC50) KB
Method: as §1

MDA-MB-468 = assay: In vitro cytotoxicity assay (WST-8 cell viability, 5 days); settings: Homo sapiens, MDA-MB-468, read-out: In vitro cytotoxicity (IC50) MDA-MB-468
Method: as §1

SUDHL-1 = assay: as above; settings: Homo sapiens, SU-DHL-1, read-out: In vitro cytotoxicity (IC50) SUDHL-1
Method: as §1

[2] = HSC-2, read-out: In vitro cytotoxicity (IC50) HSC-2, non-conjugated compounds, Table 7A
[3] = read-out: In vitro cytotoxicity (IC50) N-Luc, non-conjugated compounds, Table 7A
[4] = HSC-2, read-out: In vitro cytotoxicity (IC50) HSC-2, non-conjugated compounds, Table 7B
[5] = read-out: In vitro cytotoxicity (IC50) N-Luc, non-conjugated compounds, Table 7B
[6] = HSC-2, read-out: In vitro cytotoxicity (IC50) HSC-2

## CC[C@@]1(O)C(=O)OCc2c1cc1n(c2=O)Cc2c-1nc1cc(F)c(C)cc1c2CCl [Compound 4a]
HSC-2; [2]
  pIC50: 8.40
Namalwa
  pIC50: 8.52

## CC[C@@]1(O)C(=O)OCc2c1cc1n(c2=O)Cc2c-1nc1cc(F)c(C)cc1c2CCCCSC [Compound 33a]
HSC-2; [2]
  pIC50: 8.70
Namalwa
  pIC50: 9.15

## CC[C@@]1(O)C(=O)OCc2c1cc1n(c2=O)Cc2c-1nc1cc(F)c(SC)cc1c2CNC(=O)CO [Compound 7b]
HSC-2; [2]
  pIC50: 8.15
[1]; [3]
  pIC50: 8.70

## CC[C@@]1(O)C(=O)OCc2c1cc1n(c2=O)Cc2c-1nc1cc(F)c(SC)cc1c2CCl [Compound 4b]
HSC-2; [2]
  pIC50: 8.52
Namalwa
  pIC50: 9.00

## CC[C@@]1(O)C(=O)OCc2c1cc1n(c2=O)Cc2c-1nc1cc(F)c(C)cc1c2CCCCO [Compound 8a]
KB
  pIC50: 9.22
HSC-2; [2]
  pIC50: 9.22
HSC-2; [4]
  pIC50: 9.30
Namalwa
  pIC50: 9.70
[1]; [3]
  pIC50: 9.05
[1]; [5]
  pIC50: 9.70
MDA-MB-468
  pIC50: 8.70

## CC[C@@]1(O)C(=O)OCc2c1cc1n(c2=O)Cc2c-1nc1cc(F)c(C)cc1c2CSCCO [Compound 8c]
HSC-2; [6]
  pIC50: 9.40
[1]; [5]
  pIC50: 9.70

## CC[C@@]1(O)C(=O)OCc2c1cc1n(c2=O)Cc2c-1nc1cc(F)c(C)cc1c2CSCCSC [Compound 8p]
HSC-2; [4]
  pIC50: 9.22
[1]; [5]
  pIC50: 9.70

## CC[C@@]1(O)C(=O)OCc2c1cc1n(c2=O)Cc2c-1nc1cc(F)c(C)cc1c2CN(Cc1ccccc1)C(=O)CO [Compound 7c]
HSC-2; [2]
  pIC50: 9.00
[1]; [3]
  pIC50: 9.15
SUDHL-1
  pIC50: 9.70
MDA-MB-468
  pIC50: 9.00

## CC[C@@]1(O)C(=O)OCc2c1cc1n(c2=O)Cc2c-1nc1cc(F)c(C)cc1c2CNC(=O)CO [Compound 7a]
HSC-2; [6]
  pIC50: 8.70
HSC-2; [2]
  pIC50: 8.40
Namalwa
  pIC50: 9.05
[1]; [3]
  pIC50: 9.00
[1]; [5]
  pIC50: 9.05
SUDHL-1
  pIC50: 9.30
MDA-MB-468
  pIC50: 8.52

## CC[C@@]1(O)C(=O)OCc2c1cc1n(c2=O)Cc2c-1nc1cc(F)c(C)cc1c2CNC(=O)CCCCCSC [Compound 35a]
HSC-2; [2]
  pIC50: 8.15
SUDHL-1
  pIC50: 9.22

## CC[C@@]1(O)C(=O)OCc2c1cc1n(c2=O)Cc2c-1nc1cc(F)c(C)cc1c2CS(=O)(=O)CCO [Compound 34b]
KB
  pIC50: 8.70
HSC-2; [2]
  pIC50: 8.52
MDA-MB-468
  pIC50: 8.52

## CC[C@@]1(O)C(=O)OCc2c1cc1n(c2=O)Cc2c-1nc1cc(F)c(C)cc1c2C[S+]([O-])CCO (some centres unmarked) [Compound 34a]
KB
  pIC50: 8.15
HSC-2; [2]
  pIC50: 8.05
MDA-MB-468
  pIC50: 8.15
